Data on four molecules can be found in publication PMC2802056 (The Journal of neuroscience : the official journal of the …, 2009).

In test [1] the test system is proton-gated currents in cortical neurons. It counts as cell-based, mouse. The note with it: conditioning pH 7.2.
Another test deals with ASIC1a. The following applies: cited from earlier work; for effect on steady-state desensitization of mouse ASIC1a: ref Sherwood and Askwith, 2008.
In a further test the test system is ASIC1a:F352L. The test is described as follows: Steady-state desensitization of mutant ASIC1a:F352L. It counts as cell-based, mouse. The note with it: peptide alone; conditioning pH 6.65; n = 3.
The next test has as its target T1, mouse ASIC1a (Mus musculus, UniProt Q6NXK8).
T1 sequence (Q6NXK8 1-526): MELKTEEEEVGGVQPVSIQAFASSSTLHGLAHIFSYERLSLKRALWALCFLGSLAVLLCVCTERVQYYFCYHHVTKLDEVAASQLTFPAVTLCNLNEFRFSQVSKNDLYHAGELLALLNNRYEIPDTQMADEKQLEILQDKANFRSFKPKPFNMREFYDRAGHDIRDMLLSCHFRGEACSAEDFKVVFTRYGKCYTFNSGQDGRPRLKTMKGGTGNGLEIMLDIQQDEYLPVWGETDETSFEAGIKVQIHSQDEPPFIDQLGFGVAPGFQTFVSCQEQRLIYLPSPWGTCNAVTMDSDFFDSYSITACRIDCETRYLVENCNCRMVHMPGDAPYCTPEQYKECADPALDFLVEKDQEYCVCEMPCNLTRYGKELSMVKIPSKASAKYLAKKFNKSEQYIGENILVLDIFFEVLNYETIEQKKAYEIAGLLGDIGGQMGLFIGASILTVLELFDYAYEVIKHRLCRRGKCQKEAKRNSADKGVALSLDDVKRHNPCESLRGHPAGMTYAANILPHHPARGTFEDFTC
The test is described as follows: Competition of Big Dynorphin with PcTx1 for ASIC1a modulation, Xenopus oocytes. It counts as cell-based. The note with it: conditioning pH 7.2; PcTx1 0.2 µM or Big Dynorphin 1 µM alone.

Turning to `C=CCN1CC[C@]23c4c5ccc(O)c4O[C@H]2C(=O)CC[C@@]3(O)[C@H]1C5` [Naloxone], in test [1], the “effect of antagonist alone on proton-gated current” value was “neither of which had any affect on proton-gated currents alone”.

Consider FMRFamide, for which the “competition with PcTx1” value in the test on ASIC1a (ref Salinas et al., 2006) was “does not compete with PcTx1”. The “effect on steady-state desensitization of mouse ASIC1a” value with ASIC1a was “but not FMRFamide, prevented steady-state desensitization of mouse ASIC1a”.

On to FRRFamide, for which the “effect on steady-state desensitization of mouse ASIC1a” value in the test with ASIC1a is listed as “prevented steady-state desensitization of mouse ASIC1a”.

In the case of PcTx1, in the test with ASIC1a (ref Escoubas et al., 2000, Chen et al., 2006a, Salinas et al., 2006), the “effect on ASIC1a steady-state desensitization” value was “specifically binds the extracellular domain of ASIC1 to enhance the proton-sensitivity of steady-state desensitization”. In addition, in the test with ASIC1a:F352L, the “effect on steady-state desensitization of ASIC1a:F352L” value is recorded as “PcTx1 alone had no effect”. Besides, in the test with mouse ASIC1a, the “effect on ASIC1a steady-state desensitization, peptide alone” value was “steady-state desensitization induced by pH 7.2 was enhanced and acid-evoked current was reduced”.
